Measurements taken from patent US4575560A, “Insecticidal diaminoguanidine hydrazone compounds” (American Cyanamid Company, priority 1985, dated 1986).
Values after ≈ are worked out from the molar mass of the structure shown. Structures can show the parent of a compound that is named as a salt.

Columns and labels:
[1] = system: Southern Armyworm; experiment: Southern armyworm test, third-instar larvae on treated Sieva lima bean leaves; format: in vivo, Spodoptera eridania (Cramer); conditions: for Mortality Rating Southern Armyworm: third-instar larvae; for LC50: Spodoptera eridania, read-out: LC50 Southern Armyworm
Method in brief: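 Sieva lima bean plants, primary leaves expanded to 1.91 cm, were dipped with agitation for three seconds in test material dissolved in 65% acetone, with further dilutions in acetone, then air-dried in a hood. A treated leaf was placed in a 9 cm petri dish on moist filter paper with 10 third-instar Spodoptera eridania larvae about 1 cm long. Dishes were covered and kept at 80° F. and 50% r.h. Mortality and feeding were assessed after two days.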

[2] = system: Tobacco Budworm 1st Instar; experiment: Tobacco budworm initial test, treated eggs / newly hatched (1st instar) larvae on treated cotton leaves; format: in vivo, Heliothis virescens (Fabricus)
Experimental: Test formulations and procedures used for evaluation are as follows:
A. 100 mg of the test material is weighed, placed in a funnel over a 113 g narrow-mouth bottle, rinsed into the bottle with a 35 mL scoop of acetone, followed by a 35 mL scoop of water and another 35 mL scoop of acetone to yield 1000 ppm in 65% acetone. If the material is not soluble, it is broken up with a glass rod and used as a suspension.
B. This stock solution ("A") is used to make 300 ppm solutions or suspensions by pipetting 30 mL of "A" into a bottle containing 70 mL of 50% acetone to yield 300 ppm. Further dilutions in 50% acetone are made as required.
C. Tests requiring 10 ppm acetone solutions: 1 mL of "A" is pipetted into 99 mL of acetone to yield 10 ppm. Additional dilutions are made using 50% acetone as required.
Tobacco Budworm--Heliothis virescens (Fabricus)
A cotton plant with two true leaves expanded is dipped for three seconds with agitation in 300 ppm solution. A 1.27 to 1.91 cm square of cheesecloth with about 50 to 100 budworm eggs 0-24 hours old is also dipped in the test solution and placed on a leaf of the cotton plant, all being placed in the hood to dry. The leaf with the treated budworm eggs is removed from the plant and placed in a 226 g Dixie cup with a wet 5 cm piece of dental wick and covered with a lid. The other leaf is placed in a similar cup with a wick and a piece of cheesecloth infested with 50-100 newly hatched larvae is added before covering the cup with a lid. After three days at 80° F., 50% relative humidity, observations of egg hatch are made, as well as kill of newly hatched larvae, any inhibition of feeding, or interference of any sort with normal development.

[3] = system: Tobacco Budworm 3rd Instar; experiment: Tobacco budworm secondary test, third-instar larvae on treated cotton cotyledons; format: in vivo, Heliothis virescens (Fabricus)

Compound	Mortality Rating Southern Armyworm ([1]; 10 ppm)	Mortality Rating Southern Armyworm ([1]; 100 ppm)	Mortality Rating Southern Armyworm ([1]; 1000 ppm)	Mortality Rating Tobacco Budworm 1st Instar ([2]; 300 ppm)	Mortality Rating Tobacco Budworm 3rd Instar ([3]; 100 ppm)	Mortality Rating Tobacco Budworm 3rd Instar ([3]; 1000 ppm)	Mortality Rating Tobacco Budworm 1st Instar ([2]; 100 ppm)	Mortality Rating Tobacco Budworm 1st Instar ([2]; 10 ppm)	reduced feeding (R) Tobacco Budworm 1st Instar ([2]; 100 ppm)	Mortality Rating Tobacco Budworm 3rd Instar ([3]; 10 ppm)	reduced feeding (R) Tobacco Budworm 3rd Instar ([3]; 100 ppm)	reduced feeding (R) Tobacco Budworm 3rd Instar ([3]; 1000 ppm)	LC50 [1] [µg/mL]	LC50 Southern Armyworm ([1]; southern armyworm, in vivo) [ppm]
CN(C)C(=O)N(N=Cc1ccc(Br)cc1)C(=N)NN=Cc1ccc(Br)cc1 [Br / Br / CH3 / CH3]	0 (No effect)	9 (100%)	9 (100%)	0 (No effect)	0 (No effect)	2 (26-35%)								
N=C(NN=Cc1ccc(Br)cc1)NN=Cc1ccc(Br)cc1 [Br / HNO3]		5 (56-65%)	9 (100%)	0 (No effect)										
N=C(NN=Cc1ccc(C(F)(F)F)cc1)NN=Cc1ccc(C(F)(F)F)cc1 [CF3 / B, 1,3-bis{[p-(trifluoromethyl)benzylidene]amino}guanidine]	0 (No effect)	9 (100%)	9 (100%)	6 (66-75%)	0 (No effect)	8 (86-99%)	0 (No effect)							
N=C(NN=Cc1ccc(Br)cc1)NN=Cc1ccc(C(F)(F)F)cc1 [CF3 / Br / HCl]			9 (100%)	9 (100%)	0 (No effect)	0 (No effect)	0 (No effect)	0 (No effect)	R	0 (No effect)	R	R		
CC(C)OC(=O)N(N=Cc1ccc(C(F)(F)F)cc1)C(=N)NN=Cc1ccc(C(F)(F)F)cc1 [CF3 / CF3 / -i-C3 H7]	9 (100%)	9 (100%)	9 (100%)	0 (No effect)	0 (No effect)	3 (36-45%)					R	R		
CC(C)COC(=O)N(N=Cc1ccc(C(F)(F)F)cc1)C(=N)NN=Cc1ccc(C(F)(F)F)cc1 [CF3 / CF3 / -i-C4 H9]		0 (No effect)	9 (100%)	0 (No effect)		0 (No effect)								
CCN(CC)C(=O)N(N=Cc1ccc(C(F)(F)F)cc1)C(=N)NN=Cc1ccc(C(F)(F)F)cc1 [CF3 / CF3 / C2 H5 / C2 H5]	7 (76-85%)	9 (100%)	9 (100%)	0 (No effect)		4 (46-55%)							8 (≈ 16 µM)	12
CCNC(=O)N(N=Cc1ccc(C(F)(F)F)cc1)C(=N)NN=Cc1ccc(C(F)(F)F)cc1 [CF3 / CF3 / C2 H5 / H]		0 (No effect)	9 (100%)	0 (No effect)		0 (No effect)								
CNC(=O)N(N=Cc1ccc(C(F)(F)F)cc1)C(=N)NN=Cc1ccc(C(F)(F)F)cc1 [CF3 / CF3 / CH3 / H]	1 (11-25%)	9 (100%)	9 (100%)	8 (86-99%)		6 (66-75%)	0 (No effect)						5 (≈ 10.9 µM)	
N=C(NN=Cc1ccc(C(F)(F)F)cc1)N(N=Cc1ccc(C(F)(F)F)cc1)C(=O)OCc1ccccc1 [CF3 / CF3 / drawing 59]		0 (No effect)	9 (100%)	0 (No effect)		0 (No effect)								
